Measured values from US5556842A, “Method for viable preservation of lung grafts” (Senju Pharmaceutical Co., Ltd., priority 1994, dated 1996).

Key:
Acute toxicity LD50 = experiment: Acute toxicity LD50; set-up: species or system rats; conditions: rat, in vivo
[1] = system: lung graft (cardiac arrest donor lungs); experiment: Left-lung transplantation model with cardiac arrest donor lungs; pulmonary function parameters over 6 hours after transplantation; assay type: in vivo, adult mongrel dogs
Excerpt: The lung preserving effect of the lung graft preservative composition of this invention in the transplantation of cardiac arrest donor lungs was experimentally evaluated.
[Test substance] L-Ascorbyl DL-α-tocopheryl phosphate potassium (abbreviation: EPC-K) dissolved in modified Euro-Collins solution ^1)
[Method] The left-lung transplantation model was constructed in adult mongrel dogs and used. The donor was brought to cardiac standstill by intravenous administration of potassium chloride solution and allowed to stand at room temperature for 2 hours. Then, while Group I (n=3) was perfused with Euro-Collins solution, an organ preservative which is commonly used in lung transplantation, Group II (n=3) was perfused with the lung graft preservative composition of this invention, followed by preservation at 4° C. for 12 hours. After the lung was transplanted into the recipient, the right pulmonary artery and right main branchus were ligated and the pulmonary function parameters were determined over a period of 6 hours.

Compound: Cc1c(C)c2c(c(C)c1OP(=O)(O)OC1=C(O)[C@@H]([C@@H](O)CO)OC1=O)CCC(C)(CCCC(C)CCCC(C)CCCC(C)C)O2 (mixture of isomers) [EPC-K, L-Ascorbyl DL-α-tocopheryl phosphate potassium]
- LD50 (Acute toxicity LD50; iv, i.v. (rats)): ≥ 100 mg/kg
- LD50 (Acute toxicity LD50; po, p.o. (rats)): ≥ 5000 mg/kg
- arterial blood carbon dioxide partial pressure (PaCO2) ([1]; 5 hours after lung transplantation, preserved at 4° C. for 12 hours, n=3): 32.4±20.9 mmHg
- arterial blood oxygen partial pressure (PaO2) ([1]; 6 hours after lung transplantation, donor lung 2 h at room temperature after cardiac standstill, preserved at 4° C. for 12 hours, n=3): 460±94 mmHg
- extravascular lung water (EVLW), indicator of pulmonary edema ([1]; FIG. 3, vs. Euro-Collins solution (control)): effective in inhibiting edema
- pulmonary vascular resistance (PVR) ([1]; FIG. 5, vs. Euro-Collins solution (control)): inhibits the increase of pulmonary vascular resistance
- pulmonary arterial pressure (PAP) ([1]; FIG. 6, vs. Euro-Collins solution (control)): inhibits pulmonary edema without increasing pulmonary vascular resistance
- cardiac output (CO) ([1]; FIG. 7, vs. Euro-Collins solution (control)): exerts no adverse influence on the heart
- pulmonary blood shunt fraction ([1]; after 1 and 2 hours, FIG. 4, vs. Euro-Collins solution (control)): pulmonary blood shunt inhibitory effect which is significant after 1 and 2 hours
- arterial blood carbon dioxide partial pressure (PaCO2), effect in words ([1]; after 5 hours, vs. Group I (Euro-Collins solution), FIG. 2): remarkably effective
- various parameters of pulmonary function ([1]; after blood reperfusion): very favorable effects on various parameters of pulmonary function
- pulmonary blood shunt fraction, other time-points ([1]; time-points other than 1 and 2 hours, FIG. 4): This inhibitory effect was also noted at other time-points
- arterial blood oxygen partial pressure (PaO2), other time-points ([1]; time-points other than 6 hours, vs. Group I (Euro-Collins solution), FIG. 1): Results in Favor of Group II were obtained at other time-points, too
